Data as given in patent US20240246995A1, “PYRIMIDINONE DERIVATIVE AND PREPARATION METHOD THEREFOR, PHARMACEUTICAL COMPOSITION, AND USE” (SHANGHAI SIMR BIOTECHNOLOGY CO., LTD., priority 2021, published 2024).

Molecular target: T1, Lipoprotein-Related Phospholipase A2 (Lp-PLA2) in Human Plasma (Homo sapiens, UniProt Q13093)
T1 construct: 40 μL of equally-divided and thawed mixed human plasma is pre-added; from tissue; host or cells: mixed (pooled) human plasma
T1 sequence (Q13093 22-441): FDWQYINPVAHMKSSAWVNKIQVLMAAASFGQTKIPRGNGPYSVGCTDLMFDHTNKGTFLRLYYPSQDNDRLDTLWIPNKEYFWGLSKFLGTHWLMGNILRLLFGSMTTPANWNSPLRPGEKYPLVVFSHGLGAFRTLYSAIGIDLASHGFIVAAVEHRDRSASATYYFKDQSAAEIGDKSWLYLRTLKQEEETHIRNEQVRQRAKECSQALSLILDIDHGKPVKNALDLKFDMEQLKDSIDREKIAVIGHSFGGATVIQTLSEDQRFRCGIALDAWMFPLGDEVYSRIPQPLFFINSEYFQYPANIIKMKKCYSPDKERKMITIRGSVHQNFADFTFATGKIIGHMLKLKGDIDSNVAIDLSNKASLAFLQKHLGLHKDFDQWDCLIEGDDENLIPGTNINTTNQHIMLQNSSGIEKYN
Assay: Determination of Lp-PLA2 in human plasma (Thio-PAF assay)
Assay type: biochemical
Conditions: mixed human plasma, 2-thio-PAF substrate, 30 minutes pre-incubation at room temperature
Text: Determination of Lipoprotein-Related Phospholipase A2 (Lp-PLA2) in Human Plasma.
Human plasma determination utilizes a thioester analogue of phosphatidylcholine (PAF), where hydrolysis leads to the formation of phospholipids containing free thiol groups. The amount of the thiol groups is continuously determined by reacting with CPM (7-diethylamino-3-(4′-maleimidophenyl)-4-methylcoumarin), which is maleimide with increased fluorescence after Michael addition of the thiol groups. This determination can detect the activity of Lp-PLA2 in human plasma, for example, determined by the specific inhibition of the Lp-PLA2 inhibitors.
Thio-PAF determination, as quenched 75 μL determination, is carried out. A compound source plate is prepared by preparing a 1:3 (volume) series of diluents of each compound in pure DMSO on a 96-well microplate. A Rainin multi-channel pipette is used to transfer 3 μL of a compound on the compound source plate into a 96-well microplate where 57 μL of a determination buffer is pre-added, and the compound on the source plate is diluted by 20 folds. The above determination buffer contains 50 mM HEPES (pH 7.4), 150 mM NaCl, and 1 mM CHAPS. A Rainin multi-channel pipette is used to transfer 1 μL of the compound subjected to 20-fold dilution into a 96-well Greiner 655076 (black) microplate where 40 μL of equally-divided and thawed mixed human plasma is pre-added. The plate is oscillated for 20 seconds in an Elisa plate oscillator to be mixed evenly. After 30 minutes of pre-incubation at the room temperature, a Rainin multi-channel pipette is used to add 10 μL of a substrate solution to a 96-well Greiner 655076 (black) microplate, and the substrate solution contains 2.5 mM 2-thio-PAF [from ethanol mother liquor], 32 μM CPM [from DMSO mother liquor] and 3.2 mM NEM (N-ethylmaleimide) [newly prepared in DMSO for each experiment] in a determination buffer composed of 50 mM HEPES (pH 7.4), 150 mM NaCl, and 1 mM CHAPS. After 2 minutes, 25 μL of a 5% trifluoroacetic acid (TFA) aqueous solution is used for quenching the reaction. The plate is centrifuged at 2000 rpm for 1 minute. A Biotek Synergy H1 (H1MF) Elisa reader is used to read the plate at ex:380/em:485. GraphPad Prism 6.0 and Excel are used for IC50 data, curve, and QC analysis.

Row | IC50 | Structure (SMILES)
1 | 5 nM | O=c1nc(OCc2ccc(Oc3ccnc(C(F)(F)F)c3)c(F)c2)cc2n1CC[C@]13CO[C@H](CN21)C3 [Example 1, (7aS,10S)-2-((3-fluoro-4-((2-(trifluoromethyl)pyrid-4-yl)oxy)benzyl)oxy)-6,7,10,11-tetra hydro-4H,8H-7a,10-methanopyrimido[6′,1′:2,3]pyrimido[6,1-c][1,4]oxazin-4-one]
2 | 7.7 nM | O=c1nc(OCc2cc(F)c(Oc3ccnc(C(F)(F)F)c3)c(F)c2)cc2n1CC[C@]13CO[C@H](CN21)C3 [Example 3]
3 | 11.2 nM | Cc1cc(Oc2c(F)cc(COc3cc4n(c(=O)n3)CC[C@]35CO[C@H](CN43)C5)cc2F)ccn1 [Example 4]
4 | 4.5 nM | N#Cc1cc(COc2cc3n(c(=O)n2)CC[C@]24CO[C@H](CN32)C4)ccc1Oc1cccc(C(F)(F)F)c1 [Example 5]
5 | 5 nM | O=c1nc(OCc2cc(F)c(Oc3ccnc(Cl)c3)c(F)c2)cc2n1CC[C@]13CO[C@H](CN21)C3 [Example 6]
6 | 3.6 nM | O=c1nc(OCc2cc(F)c(Oc3ccnc(OC(F)(F)F)c3)c(F)c2)cc2n1CC[C@]13CO[C@H](CN21)C3 [Example 7]
7 | 8.1 nM | O=c1nc(OCc2ccc(Oc3ccnc(C(F)F)c3)c(F)c2)cc2n1CC[C@]13CO[C@H](CN21)C3 [Example 8]
8 | 6.3 nM | O=c1nc(OCc2cc(F)c(Oc3cnc(C(F)(F)F)nc3)c(F)c2)cc2n1CC[C@]13CO[C@H](CN21)C3 [Example 9]
9 | 10.8 nM | N#Cc1cc(COc2cc3n(c(=O)n2)CC[C@]24CO[C@H](CN32)C4)ccc1F [Example 10]
10 | 8.9 nM | O=c1nc(OCCc2ccc(Oc3ccc(Cl)c(C(F)(F)F)c3)cc2)cc2n1CC[C@]13CO[C@H](CN21)C3 [Example 11, (7aS, 10S)-2-(4-(4-chloro-3-(trifluoro-methyl)phenoxy)phenylethoxy)-6,7, 10,11-tetrahydro-4H,8H-7a,10-methanopyrimido [6′,1′:2,3]pyrimido [6,1-c][1,4]oxazin-4-one]
11 | 8.3 nM | O=c1nc(OCc2cc(F)c(Oc3ccnc(C(F)(F)F)c3)c(F)c2)cc2n1CCC13CC(CN21)C3 [Example 12, 2-((3,5-difluoro-4-((2-(trifluoromethyl)pyrid-4-yl)oxy)benzyl)oxy)-6,7,9,10-tetrahydro-4H, 8H-7a,9-methano-pyrimido[1,6-a] pyrrolo[1,2-c]pyri-midine-4-one]
12 | 8.3 nM | O=c1nc(OCc2ccc(Oc3ccnc(C(F)(F)F)c3)c(F)c2)cc2n1CCC13CC(CN21)C3 [Example 13, 2-((3-fluoro-4-((2-(trifluoromethyl)pyrid-4-yl)oxy)benzyl)oxy)-6,7,9,10-tetrahydro-4H,8H-7a,9-methanopyri-mido[1,6-a]pyrrolo [1,2-c]pyrimidine-4-one]
13 | 8.8 nM | O=c1nc(OCc2cc(F)c(Oc3ccc(Cl)c(C(F)(F)F)c3)c(F)c2)cc2n1CCC13CC(CN21)C3 [Example 14, 2-((4-(4-chloro-3-(trifluoromethyl)phenoxy)-3,5-di-fluorobenzyl)oxy)-6,7,9,10-tetrahydro-4H,8H-7a,9-methanopyrimido [1,6-a]pyrrolo[1,2-c] pyrimidine-4-one]
14 | 27.6 nM | Cc1cc(Oc2c(F)cc(COc3cc4n(c(=O)n3)CCC35CC(CN43)C5)cc2F)ccn1 [Example 15, 2-((3,5-difluoro-4-((2-methylpyrid-4-yl)oxy)benzyl)oxy)-6,7,9,10-tetra-hydro-4H,8H-7a,9-methanopyrimido [1,6-a]pyrrolo[1,2-c]pyrimidine-4-one]
15 | 9.2 nM | N#Cc1cc(COc2cc3n(c(=O)n2)CCC24CC(CN32)C4)ccc1Oc1cccc(C(F)(F)F)c1 [Example 16]
16 | 21.5 nM | O=c1nc(OCc2cc(F)c(Oc3ccnc(Cl)c3)c(F)c2)cc2n1CCC13CC(CN21)C3 [Example 17]
17 | 11 nM | O=c1nc(OCc2cc(F)c(Oc3ccnc(OC(F)(F)F)c3)c(F)c2)cc2n1CCC13CC(CN21)C3 [Example 18]

Row | IC50 | Structure (SMILES)
18 | 37 nM | O=c1nc(OCc2ccc(Oc3ccnc(C(F)F)c3)c(F)c2)cc2n1CCC13CC(CN21)C3 [Example 19]
19 | 37.5 nM | O=c1nc(OCc2cc(F)c(Oc3cnc(C(F)(F)F)nc3)c(F)c2)cc2n1CCC13CC(CN21)C3 [Example 20, 2-((3,5-difluoro-4-((2-(trifluoromethyl)pyrimidin-5-yl)oxy)benzyl)oxy)-6,7,9,10-tetrahydro-4H,8H-7a,9-methano-pyrimido[1,6-a] pyrrolo[1,2-c] pyrimidine-4-one]
20 | 24.2 nM | N#Cc1cc(COc2cc3n(c(=O)n2)CCC24CC(CN32)C4)ccc1F [Example 21]
21 | 120 nM | O=c1nc(OCCc2ccc(Oc3ccc(Cl)c(C(F)(F)F)c3)cc2)cc2n1CCC13CC(CN21)C3 [Example 22, 2-(4-(4-chloro-3-(trifluoromethyl)phenoxy)phenyl-ethoxy)-6,7,9,10-tetrahydro-4H,8H-7a,9-methano-pyrimido [1,6-a]pyrrolo[1,2-c] pyrimidine-4-one]
22 | 4.9 nM | O=c1nc(OCc2cc(F)c(Oc3ccnc(C(F)(F)F)c3)c(F)c2)cc2n1CC[C@@]13CO[C@@H](CN21)C3 [Example 23]
23 | 6.5 nM | N#Cc1cc(COc2cc3n(c(=O)n2)CC[C@@]24CO[C@@H](CN32)C4)ccc1Oc1cccc(C(F)(F)F)c1 [Example 25]
24 | 6.6 nM | O=c1nc(OCc2cc(F)c(Oc3ccnc(OC(F)(F)F)c3)c(F)c2)cc2n1CC[C@@]13CO[C@@H](CN21)C3 [Example 26]
25 | 4.6 nM | O=c1nc(OCc2cc(F)c(Oc3cnc(C(F)(F)F)nc3)c(F)c2)cc2n1CC[C@@]13CO[C@@H](CN21)C3 [Example 27]
26 | 13.3 nM | O=c1nc(OCCc2ccc(Oc3ccc(Cl)c(C(F)(F)F)c3)cc2)cc2n1CC[C@@]13CO[C@@H](CN21)C3 [Example 28, (7aR,10R)-2-(4-(4-chloro-3-(trifluoro-methyl)phenoxy)phenylethoxy)-6,7, 10,11-tetrahydro-4H,8H-7a,10-methanopyrimido [6′,1′:2,3] pyrimido[6,1-c] [1,4]oxazin-4-one]
27 | 54.1 nM | O=c1nc(OCc2cc(F)c(Oc3ccnc(C(F)(F)F)c3)c(F)c2)cc2n1CCC1CCCN21 (stereo not shown) [Example 29, 2-((3,5-difluoro-4-((2-(trifluoromethyl)pyrid-4-yl)oxy)benzyl)oxy)-6,7,7a,8,9,10-hexahy-dro-4H-pyrimidinyl [1,6-a]pyrrolo [1,2-c]pyrimidine-4-one]
28 | 97.1 nM | O=c1nc(OCc2cc(F)c(Oc3cnc(C(F)(F)F)nc3)c(F)c2)cc2n1CCC1CCCN21 (stereo not shown) [Example 31]
29 | 45.7 nM | N#Cc1cc(COc2cc3n(c(=O)n2)CCC2CCCN32)ccc1Oc1cccc(C(F)(F)F)c1 (stereo not shown) [Example 32]
30 | 24.7 nM | O=c1nc(OCc2cc(F)c(Oc3ccc(Cl)c(C(F)(F)F)c3)c(F)c2)cc2n1CCC1CCCN21 (stereo not shown) [Example 33, 2-((4-(4-chloro-3-(trifluoromethyl)phenoxy)-3,5-di-fluorobenzyl)oxy)-6,7,7a,8,9,10-hexahydro-4H-pyrimidinyl [1,6-a]pyrrolo [1,2-c]pyrimidine-4-one]
31 | 9.9 nM | CC12CCCN1c1cc(OCc3ccc(Oc4ccnc(C(F)(F)F)c4)c(F)c3)nc(=O)n1CC2 (stereo not shown) [Example 34, 2-((3-fluoro-4-((2-(trifluoromethyl)pyrid-4-yl)oxy)benzyl)oxy)-7a-methyl-6,7,7a,8,9,10-hexahydro-4H-pyri-midinyl[1,6-a] pyrrolo[1,2-c] pyrimidine-4-one]
32 | 23.2 nM | Cc1cc(Oc2c(F)cc(COc3cc4n(c(=O)n3)CCC3(C)CCCN43)cc2F)ccn1 (stereo not shown) [Example 35, 2-((3,5-fluoro-4-((2-methylpyrid-4-yl)oxy)benzyl)oxy)-7a-methyl-6,7,7a, 8,9,10-hexahydro-4H-pyrimidinyl [1,6-a]pyrrolo[1,2-c] pyrimidine-4-one]
33 | 17.4 nM | CC12CCCN1c1cc(OCc3cc(F)c(Oc4ccnc(Cl)c4)c(F)c3)nc(=O)n1CC2 (stereo not shown) [Example 36]
34 | 34 nM | CC12CCCN1c1cc(OCc3ccc(F)c(C#N)c3)nc(=O)n1CC2 (stereo not shown) [Example 37]
